Columns and labels:
[1] = target: T1, Amine oxidase [flavin-containing] B (Homo sapiens, UniProt P27338); assay: Inhibition of human recombinant MAOB at 80 uM using benzylamine as substrate preincubated for 30 mins followed by substrate addition
T1 sequence (P27338 whole entry): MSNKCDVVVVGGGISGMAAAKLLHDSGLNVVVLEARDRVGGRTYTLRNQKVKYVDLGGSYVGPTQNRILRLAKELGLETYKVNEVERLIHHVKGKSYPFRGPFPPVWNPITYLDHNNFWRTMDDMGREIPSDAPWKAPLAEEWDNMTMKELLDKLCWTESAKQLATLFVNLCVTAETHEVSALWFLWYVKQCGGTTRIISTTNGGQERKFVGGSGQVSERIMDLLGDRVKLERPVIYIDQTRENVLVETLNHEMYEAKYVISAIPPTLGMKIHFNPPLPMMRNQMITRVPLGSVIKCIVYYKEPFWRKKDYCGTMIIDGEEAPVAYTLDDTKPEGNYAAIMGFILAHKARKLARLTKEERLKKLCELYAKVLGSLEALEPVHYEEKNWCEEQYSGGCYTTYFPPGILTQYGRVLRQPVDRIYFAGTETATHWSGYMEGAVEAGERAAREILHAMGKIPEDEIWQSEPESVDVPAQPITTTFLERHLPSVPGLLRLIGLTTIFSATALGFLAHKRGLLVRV

[2] = target: T1, Amine oxidase [flavin-containing] B; assay: Inhibition of human recombinant MAOB using benzylamine as substrate preincubated for 30 mins followed by substrate addition
[3] = target: T2, Amine oxidase [flavin-containing] A (Homo sapiens, UniProt P21397); assay: Inhibition of human recombinant MAOA using kynuramine as substrate preincubated for 30 mins followed by substrate addition
T2 sequence (P21397 whole entry): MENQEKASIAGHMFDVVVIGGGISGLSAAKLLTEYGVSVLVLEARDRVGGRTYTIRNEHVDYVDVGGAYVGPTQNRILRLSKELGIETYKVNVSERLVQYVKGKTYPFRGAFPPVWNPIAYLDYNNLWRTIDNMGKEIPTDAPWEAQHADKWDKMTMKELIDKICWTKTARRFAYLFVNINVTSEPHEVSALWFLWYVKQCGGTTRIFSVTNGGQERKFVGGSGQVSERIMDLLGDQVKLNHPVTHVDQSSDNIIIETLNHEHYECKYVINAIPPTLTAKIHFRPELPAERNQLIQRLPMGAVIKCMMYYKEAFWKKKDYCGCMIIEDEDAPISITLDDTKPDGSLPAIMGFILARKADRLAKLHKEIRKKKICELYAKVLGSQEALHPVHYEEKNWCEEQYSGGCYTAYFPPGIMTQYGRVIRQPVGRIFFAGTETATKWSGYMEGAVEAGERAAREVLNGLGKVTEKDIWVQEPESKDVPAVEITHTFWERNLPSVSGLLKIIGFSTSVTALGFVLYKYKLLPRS

Homo sapiens = species: Homo sapiens; assay: Selectivity index, ratio of IC50 for human recombinant MAOB to IC50 for human recombinant MAOA
[4] = target: T2, Amine oxidase [flavin-containing] A; assay: Time dependent inhibition of human recombinant MAOA using kynuramine as substrate preincubated for up to 30 mins followed by substrate addition
[5] = target: T1, Amine oxidase [flavin-containing] B; assay: Inhibition of human recombinant MAOB assessed as residual enzyme activity at 2 time IC50 pre-incubated for 30 mins followed by 0.06 mM benzylamine substrate addition
[6] = target: T1, Amine oxidase [flavin-containing] B; assay: Reversible inhibition of human recombinant MAOB assessed as residual enzyme activity at 2 times IC50 pre-incubated with enzyme for 30 mins followed by dialysis with pH 7.2 sodium phosphate buffer for 6 hrs followed by 0.06 mM benzylamine substrate addition; details: pH 7.2, 6 h
[7] = target: T2, Amine oxidase [flavin-containing] A; assay: Irreversible inhibition of human recombinant MAOA assessed as residual enzyme activity at 0.01 uM pre-incubated with enzyme for 30 mins followed by dialysis with pH 7.2 sodium phosphate buffer for 6 hrs followed by 0.06 mM kynuramine substrate addition; details: read-out: Activity
[8] = target: T2, Amine oxidase [flavin-containing] A; assay: Inhibition of human recombinant MAOA assessed as residual enzyme activity at 0.01 uM pre-incubated for 30 mins followed by 0.06 mM kynuramine substrate addition; details: read-out: Activity
[9] = target: T2, Amine oxidase [flavin-containing] A; assay: Inhibition of human recombinant MAOA assessed as residual enzyme activity at 2 uM pre-incubated for 30 mins followed by 0.06 mM kynuramine substrate addition; details: read-out: Activity
[10] = target: T2, Amine oxidase [flavin-containing] A; assay: Reversible inhibition of human recombinant MAOA assessed as residual enzyme activity at 2 uM pre-incubated with enzyme for 30 mins followed by dialysis with pH 7.2 sodium phosphate buffer for 6 hrs followed by 0.06 mM kynuramine substrate addition; details: read-out: Activity
[11] = target: T2, Amine oxidase [flavin-containing] A; assay: Reversible inhibition of human recombinant MAOA assessed as residual enzyme activity at 0.5 uM pre-incubated with enzyme for 30 mins followed by dialysis with pH 7.2 sodium phosphate buffer for 6 hrs followed by 0.06 mM kynuramine substrate addition; details: read-out: INH
[12] = target: T2, Amine oxidase [flavin-containing] A; assay: Competitive inhibition of human recombinant MAOA using 0.006 to […] kynuramine as substrate preincubated for 30 mins followed by substrate addition by Lineweaver-Burk plot
[13] = target: T1, Amine oxidase [flavin-containing] B; assay: Reversible inhibition of human recombinant MAOB assessed as residual enzyme activity at 5 uM pre-incubated with enzyme for 30 mins followed by dialysis with pH 7.2 sodium phosphate buffer for 6 hrs followed by 0.06 mM benzylamine substrate addition; details: pH 7.2, 6 h
[14] = target: T2, Amine oxidase [flavin-containing] A; assay: Inhibition of human recombinant MAOA assessed as residual enzyme activity at 0.5 uM pre-incubated for 30 mins followed by 0.06 mM kynuramine substrate addition; details: read-out: INH
[15] = target: T1, Amine oxidase [flavin-containing] B; assay: Inhibition of human recombinant MAOB assessed as residual enzyme activity at 5 uM pre-incubated for 30 mins followed by 0.06 mM benzylamine substrate addition

O=C1/C(=C/c2ccc(O)c(O)c2)Oc2cc(O)ccc21 [SULFURETIN]
inhibition at 80 µM [1]: 20.8%
IC50 [2]: > 80000 nM
IC50 [3]: 4160 nM
Ratio IC50 (Homo sapiens): > 19.2
TDI [4]: Not Active

NCCNC(=O)c1ccc(Cl)cn1 [LAZABEMIDE]
Activity [5]: 72.9%
Activity [6]: 35%

C#CCN(C)CCCOc1ccc(Cl)cc1Cl [CLORGILINE]
activity at 0.01 µM [7]: 17.3%
activity at 0.01 µM [8]: 18.3%

COc1ccc(-c2cc(=O)c3c(O)cc(O)cc3o2)cc1 [ACACETIN]
IC50 [3]: 190 nM

Cc1cccc(N2CC(CO)OC2=O)c1 (configuration not stated) [TOLOXATONE]
activity at 2 µM [9]: 75.4%
activity at 2 µM [10]: 30.7%

COc1cc(O)c2c(=O)oc3cc(O)cc(C)c3c2c1
IC50 [3]: 1710 nM

CC(C)=CC(=O)O[C@H]1Cc2cc3ccc(=O)oc3cc2OC1(C)C [DECURSIN]
IC50 [3]: 1760 nM

O=c1cc(-c2ccc(O)cc2)oc2cc(O)cc(O)c12 [APIGENIN]
IC50 [3]: 1550 nM

O=C1/C(=C/c2ccc(O)cc2)Oc2cc(O)ccc21
activity at 0.5 µM [11]: 83.7%
Ki [12]: 100 nM
Activity [13]: 28%
activity at 0.5 µM [14]: 29.8%
IC50 [3]: 260 nM
TDI [4]: Not Active
Activity [15]: 87.5%
